For assay [1], the system named is EMT6 breast cancer cell line. Nature of the assay: Antiproliferative screening on EMT6 cancer cells. As to conditions: for activity at 100 µM: Mus musculus, EMT6, no ligand = 100, read-out: EMT6 cell proliferation (%); for EMT6 cell proliferation (%) / inhibition of EMT6 cell proliferation: 100 μM; for EMT6 cell proliferation (%): no ligand = 100. It is filed as cell-based. How it is done:
Representative compounds were screened tested for antiproliferative activity on the EMT6 breast cancer cell line. Screening was carried out according to published procedures (Zeng et al., 2014). In this screen, compounds were tested at 100 μM concentration.

Assay [2] deals with sphingosine-1-phosphate receptor 1 (S1PR1) (Homo sapiens, UniProt P21453). The assay can be described thus: Radioligand binding to sphingosine-1-phosphate receptor 1. Conditions: test compound 100 nM, 0.2 nM radioligand; for inhibition at 0.1 µM: read-out: % INHIBITION of binding to the SIP1 Receptor. How it is done:
The binding of a representative group of compounds of this invention to sphingosine-1-phosphate receptor 1 (S1PR1) was determined by a published procedure (Rosenberg et al., 2016). In this assay, the test compound at 100 nM concentration was incubated with 0.2 nM radioligand. Active compounds or “hits” are defined as compounds that inhibit radioligand binding by 50% or more. […] This finding is significant because it establishes the 3′,4′-dihydro-2′H-[…]-2-one hybrid scaffold as an entirely new class of ligands for the sphingosine-1-phosphate receptors.

For assay [3], the system named is nonsmall cell lung cancer (NSCLC) cell lines. The assay can be described thus: NCI-60 screen, NSCLC cell lines. It is filed as cell-based, human. As to conditions: Homo sapiens, NCI-60 preliminary screening, read-out: Percent (%) Inhibition of Cancer Cell Line, NSCLC. How it is done:
(§1) Screening for Anticancer Activity—The NCI-60 panel: Representative compounds of the invention were subjected to anticancer testing in the National Cancer Institute (NCI) 60 screen. In this screen compounds are tested on a panel of sixty human cancer cell lines chosen from the following cancers: leukemia, nonsmall cell lung cancer (NSCLC), colon, melanoma, central nervous system (CNS), ovarian, renal, prostate and breast. The assay method is found on the NCI website (dtp.cancer.gov/discovery_development/nci-60/methodology.htm). In the NCI-60 assay, test compounds undergo preliminary screening at 10 μM concentration. The data is reported as percent growth relative to “no drug” control; therefore values between 0 and 100% denote growth inhibition.

In another assay the test system is renal cancer cell lines. Nature of the assay: NCI-60 screen, renal cell lines. Type of assay: cell-based, human. Conditions: Homo sapiens, NCI-60 preliminary screening, read-out: Percent (%) Inhibition of Cancer Cell Line, Renal Cell. Here is the method:
as §1

Another assay concerns leukemia cell lines. The assay can be described thus: NCI-60 screen, leukemia cell lines. It is filed as cell-based. Conditions: Homo sapiens, NCI-60 preliminary screening, read-out: Percent (%) Inhibition of Cancer Cell Line, Leukemia. How it is done: as §1

SMILES strings stand for the structures. Bounds are passed on as bounds.

sphingosine-1-phosphate receptor 1 (S1PR1), sequence (P21453 whole entry, species assumed): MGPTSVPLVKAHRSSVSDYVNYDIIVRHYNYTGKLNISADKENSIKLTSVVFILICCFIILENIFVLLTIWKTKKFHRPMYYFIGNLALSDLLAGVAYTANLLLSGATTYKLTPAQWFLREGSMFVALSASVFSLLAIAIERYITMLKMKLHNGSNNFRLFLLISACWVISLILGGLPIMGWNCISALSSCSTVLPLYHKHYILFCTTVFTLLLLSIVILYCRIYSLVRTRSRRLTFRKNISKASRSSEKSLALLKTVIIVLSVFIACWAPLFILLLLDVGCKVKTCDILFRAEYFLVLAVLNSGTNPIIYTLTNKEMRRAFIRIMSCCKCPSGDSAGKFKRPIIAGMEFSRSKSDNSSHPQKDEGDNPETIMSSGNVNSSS

For the compound `O=C1Nc2c(Br)cc(Br)cc2C12NCCc1cccc(O)c12` (stereo not drawn) [Compound 1c, 5,7-Dibromo-8′-hydroxy-3′,4′-dihydro-2′H-spiro[indoline-3,1′-isoquinolin]-2-one], the activity at 100 µM in assay [1] turned out to be 87.6%.
As to `O=C1N(Cc2ccc(Br)cc2)c2ccccc2C12NCCc1cccc(O)c12` (stereo not drawn) [Compound 1f, 1-(4-bromobenzyl)-8′-hydroxy-3′,4′-dihydro-2′H-spiro[indoline-3,1′-isoquinolin]-2-one], the activity at 100 µM in assay [1] is 103%. In addition, the inhibition at 0.1 µM in assay [2] is ≥ 50%.
On the same counts, the results for `Cc1ccc(CN2C(=O)C3(NCCc4cccc(O)c43)c3ccccc32)cc1` (stereo not drawn) [Compound 1h, 8′-Hydroxy-1-(4-methylbenzyl)-3′,4′-dihydro-2′H-spiro[indoline-3,1′-isoquinolin]-2-one] are 127% and ≥ 50%.
As for `O=C1N(Cc2ccccc2[N+](=O)[O-])c2ccccc2C12NCCc1cccc(O)c12` (stereo not drawn) [Compound 1i, 8-Hydroxy-1-(2-nitrobenzyl)-3′,4′-dihydro-2′H-spiro[indoline-3,1′-isoquinolin]-2-one], the “EMT6 cell proliferation (%)” value in assay [1] turned out to be 108.20%. Also, the “% INHIBITION of binding to the SIP1 Receptor” value (from here on “% INHIBITION of binding”) in assay [2] was 35.4%.
Take `O=C1N(Cc2ccc(F)cc2)c2ccc(Cl)cc2C12NCCc1cccc(O)c12` (stereo not drawn) [Compound 1k, 5-Chloro-1-(4-fluorobenzyl)-8′-hydroxy-3′,4′-dihydro-2′H-spiro[indoline-3,1′-isoquinolin]-2-one]: the inhibition at 0.1 µM in assay [2] was ≥ 50%.
For `O=C1N(Cc2ccc(Cl)cc2)c2ccc(Cl)cc2C12NCCc1cccc(O)c12` (stereo not drawn) [Compound 1l, 5-Chloro-1-(4-chlorobenzyl)-8′-hydroxy-3′,4′-dihydro-2′H-spiro[indoline-3,1′-isoquinolin]-2-one], the inhibition at 0.1 µM in assay [2] was ≥ 50%.
In the case of `O=C1Nc2ccc(Cl)cc2C12NCCc1cc(O)ccc12` (stereo not drawn) [Compound 2b, 5-Chloro-6′-hydroxy-3′,4′-dihydro-2′H-spiro[indoline-3,1′-isoquinolin]-2-one], the inhibition at 10 µM (in assay [3]; in the assay on renal cancer cell lines) was 17% in each case. For the same compound, the activity at 100 µM in assay [1] was determined as 109%.
In the case of `O=C1N(Cc2ccc(F)cc2)c2ccccc2C12NCCc1cc(O)ccc12` (stereo not drawn) [Compound 2d, 1-(4-Fluorobenzyl)-6′-hydroxy-3′,4′-dihydro-2′H-spiro[indolline-3,1′-isoquinolin]-2-one], the “EMT6 cell proliferation (%)” value in assay [1] is recorded as 123.61%.
For `O=C1N(Cc2ccc(Cl)cc2)c2ccccc2C12NCCc1cc(O)ccc12` (stereo not drawn) [Compound 2e, 1-(4-Chlorobenzyl)-6′-hydroxy-3′,4′-dihydro-2′H-spiro[indoline-3,1′-isoquinolin]-2-one], the activity at 100 µM in assay [1] stood at 72.2%.
Take `O=C1N(Cc2ccc(Br)cc2)c2ccccc2C12NCCc1cc(O)ccc12` (stereo not drawn) [Compound 2f, 1-(4-bromobenzyl)-6′-hydroxy-3′,4′-dihydro-2′H-spiro[indoline-3,1′-isoquinolin]-2-one]: in assay [1], the “inhibition of EMT6 cell proliferation” value was “as much as fifty percent” and the activity at 100 µM is 41.4%.
With `Cc1ccc(CN2C(=O)C3(NCCc4cc(O)ccc43)c3ccccc32)cc1` (stereo not drawn) [Compound 2h, 6′-Hydroxy-1-(4-methylbenzyl)-3′,4′-dihydro-2′H-spiro[indoline-3,1′-isoquinolin]-2-one], the results for the inhibition at 10 µM (in assay [3]; in the assay with leukemia cell lines; in the assay with renal cancer cell lines) were 32%, 24% and 25%, respectively. Besides, in assay [1], the activity at 100 µM was found to be 132%.
Take `O=C1N(Cc2ccccc2[N+](=O)[O-])c2ccccc2C12NCCc1cc(O)ccc12` (stereo not drawn) [Compound 2i, 6′-Hydroxy-1-(2-nitrobenzyl)-3′,4′-dihydro-2′H-spiro[indoline-3,1′-isoquinolin]-2-one]: the activity at 100 µM in assay [1] came out at 98.5%.
Same read-out and setting: the result for `O=C1N(Cc2ccc(F)cc2)c2ccc(Cl)cc2C12NCCc1cc(O)ccc12` (stereo not drawn) [Compound 2k, 5-Chloro-1-(4-fluorobenzyl)-6′-hydroxy-3′,4′-dihydro-2′H-spiro[indoline-3,1′-isoquinolin]-2-one] reads 131%.
For `O=C1N(Cc2ccc(Cl)cc2)c2ccc(Cl)cc2C12NCCc1cc(O)ccc12` (stereo not drawn) [Compound 2l, 5-Chloro-1-(4-chlorobenzyl)-6′-hydroxy-3′,4′-dihydro-2′H-spiro[indoline-3,1′-isoquinolin]-2-one], in assay [1], the “inhibition of EMT6 cell proliferation” value was “as much as fifty percent” and the activity at 100 µM is 37.2%. For the same compound, the inhibition at 0.1 µM in assay [2] was ≥ 50%.
Consider `Cc1ccc(CN2C(=O)C3(NCCc4cc(O)ccc43)c3cc(Cl)ccc32)cc1` (stereo not drawn) [Compound 2m, 5-Chloro-6′-hydroxy-1-(4-methylbenzyl)-3′,4′-dihydro-2′ spiro[indoline-3,1′-isoquinolin]-2-one], for which the “EMT6 cell proliferation (%)” value in assay [1] was determined as 72.26%. In assay [2], the “% INHIBITION of binding” value came to 52.4%.
With `O=C1Nc2ccccc2C12NCCc1cc(O)c(O)cc12` (stereo not drawn) [Compound 3a, 6′,7′-Dihydroxy-3′,4′-dihydro-2′H-spiro[indoline-3,1′-isoquinolin]-2-one], in assay [1], the activity at 100 µM came to 91.2%.
With `O=C1Nc2ccc(Cl)cc2C12NCCc1cc(O)c(O)cc12` (stereo not drawn) [Compound 3b, 5-Chloro-6′,7′-dibydroxy-3′,4′-dihydro-2′H-spiro[indoline-3,1′-isoquinolin]-2-one], the “% INHIBITION of binding” value in assay [2] is on record as 34.2%.
For `COc1ccc2c(c1)CCNC21C(=O)Nc2ccc(Cl)cc21` (stereo not drawn) [Compound 4b, 5-Chloro-6′-methoxy-3′,4′-dihydro-2′H-spiro[indoline-3,1′-isoquinolin]-2-one], the inhibition at 10 µM in the assay with renal cancer cell lines fell in the range of 23 to 30%. Moreover, the activity at 100 µM in assay [1] came out at 142%.
On to `COc1ccc2c(c1)CCNC21C(=O)Nc2c(Br)cc(Br)cc21` (stereo not drawn) [Compound 4c, 5,7-Dibromo-6′-methoxy-3′,4′-dihydro-2′H-spiro[indoline-3,1′-isoquinolin]-2-one], for which the inhibition at 0.1 µM in assay [2] came out at 36.3%.
For `COc1ccc2c(c1)CCNC21C(=O)N(Cc2ccc(F)cc2)c2ccccc21` (stereo not drawn) [Compound 4d, 6′-Methoxy-1-(4-fluorobenzyl)-3′,4′-dihydro-2′H-spiro[indoline-3,1′-isoquinolin]-2-one], the inhibition at 0.1 µM in assay [2] was found to be 41.5%.
Regarding `COc1cc2c(cc1OC)C1(NCC2)C(=O)Nc2ccccc21` (stereo not drawn) [Compound 5a, 6′,7′-Dimethoxy-3′,4′-dihydro-2′H-spiro[indoline-3,1′-isoquinolin]-2-one], in the assay with renal cancer cell lines, the inhibition at 10 µM lay in the range of 25 to 37%. Further, the inhibition at 0.1 µM in assay [2] is 39.1%.
Take `COc1cc2c(cc1OC)C1(NCC2)C(=O)N(Cc2ccc(F)cc2)c2ccccc21` (stereo not drawn) [Compound 5d, 1-(4-fluorobenzyl)-6′,7′-dimethoxy-3′,4′-dihydro-2′H-spiro[indoline-3,1′-isoquinolin]-2-one]: the inhibition at 0.1 µM in assay [2] worked out at 40%.
`COc1cc2c(c(OC)c1OC)C1(NCC2)C(=O)Nc2ccccc21` (stereo not drawn) [Compound 6a, 6′,7′,8′-Trimethoxy-3′,4′-dihydro-2′H-spiro[indoline-3,1′-isoquinolin]-2-one]: the inhibition at 10 µM in the assay on leukemia cell lines and with renal cancer cell lines was 22% in each case. In assay [2], the inhibition at 0.1 µM stood at 38.4%.
In the case of `COc1cc2c(c(OC)c1OC)C1(NCC2)C(=O)Nc2c(Br)cc(Br)cc21` (stereo not drawn) [Compound 6c, 5,7-Dibromo-6′,7′,8′-trimethoxy-3′,4′-dihydro-2′H-spiro[indoline-3,1′-isoquinolin]-2-one], the inhibition at 0.1 µM in assay [2] was found to be 36.7%.
`COc1cc2c(c(OC)c1OC)C1(NCC2)C(=O)N(Cc2ccc(F)cc2)c2ccccc21` (stereo not drawn) [Compound 6d, 1-(4-Fluorobenzyl)-6′,7′,8′-trimethoxy-3′,4′-dihydro-2′H-spiro[indoline-3,1′-isoquinolin]-2-one]: the inhibition at 0.1 µM in assay [2] was ≥ 50%.
Same read-out and setting: the result for `COc1cc2c(c(OC)c1OC)C1(NCC2)C(=O)N(Cc2ccc(C)cc2)c2ccccc21` (stereo not drawn) [Compound 6e, 6′,7′,8′-Trimethoxy-1-(4-methylbenzyl)-3′,4′-dihydro-2′H-spiro[indoline-3,1′-isoquinolin]-2-one] reads 31.3%.

For the origin of these results see patent US20220267329A1, “Dihydro-Spiro[Indoline-3:1'-Isoquinolin]-2-Ones and Their Analogues and Derivatives and Methods of Treating Cancer and Other Diseases” (The University of Buea, priority 2019, published 2022).
